# Measured values taken from patent publication US12351587B2, “Bicyclic compound as RIP-1 kinase inhibitor and application thereof” (MEDSHINE DISCOVERY INC., priority 2019, dated 2025).
# Assays:
# [1] = system: TNF-α/zVAD induced systemic inflammatory response syndrome (SIRS); experiment: Mouse model of TNF-α induced systemic inflammatory response syndrome (SIRS); format: in vivo; conditions: 10 mpk by gavage
# Experimental: Assay Example 4: In Vivo Efficacy Study in Mouse Model of Tumor Necrosis Factor (TNF-α) Induced Systemic Inflammatory Response Syndrome (SIRS)
# Instruments and Materials • 1) Electronic balance: Brand Changzhou Tianzhiping Instrument Equipment Co., Ltd., Model JY20002 • 2) Anal thermometer. Brand PHYSITEMP, model BAT-12 Formulation of Reagents • 1) TNF-α: TNF-α was centrifuged quickly (10000 rmp, 30 s) before opening the lid. One bottle of TNF-α (1 mg) was dissolved in 1 mL of sterile water to prepare a mother liquor with a concentration of 1 mg/mL. The mother liquor was stored at 4° C. and cm be stored for one week, 1000 μL of the mother liquor was weighed and added to 5667 μL of sterile water, and then 333 mg of trehalose was added and dissolved to prepare a working solution. • 2) zVAD: […] of zVAD was weighed and added to 480 μL of DMSO, and the mixture was vortexed, sonicated, and heated at 37° C., and then 15.52 mL of physiological saline was added. A working solution with a concentration of 1.25 mu/mL was prepared. Assay Steps • 1) The mice were reared adaptively for 3 days, and then randomly grouped into cages, 5 mice in each cage. Ear tags were cut. • 2) Firstly, the mice were given the corresponding compound by gavage according to their body weight, and then injected intraperitoneally with zVAD at a dose of 250 μg per mouse. After the intraperitoneal injection of zVAD, the anal temperature was measured immediately (0 h), and the time was recorded. The time when mice were given zVAD was defined as the 0th hour (0 h). • 3) After 15 minutes, TNF-α was injected through the tail vein at a dose of 200 μL per mouse, and then the anal temperature was measured 15 minutes later (0.5 h). • 4) After 1 h, zVAD was injected intraperitoneally at a dose of 125 μg per mouse, and then the anal temperature was measured immediately (1 h). The anal temperature was measured again at 2 h, 3 h, and 4 h.
# [2] = Plasma protein binding rate (PPB), mouse plasma; format: in vitro ADME, CD-1 mice; conditions: 2 μM, dialysis 4 hours 37° C.
# Experimental: 796 μL of bank plasma from humans, SD rats and CD-1 mice (plasma purchased from BioreclamationIVT) were weighed, and the assay compound working solution or warfarin working solution was added so that the final concentration of the assay compound and warfarin in the plasma sample was 2 μM. The samples were mixed thoroughly. The final concentration of DMSO in the organic phase was 0.5%, 50 μL of plasma samples of the assay compound and warfarin were pipetted to a sample receiving plate, and the corresponding volume of the corresponding blank plasma or buffer was added immediately, so that the final volume in each sample well was 100 μL, wherein the volume ratio of plasma:dialysis buffer was 1:1. Stop solution was then added to these samples. These samples were used as T0 samples for determination of recovery and stability. The plasma samples of the assay compound and warfarin were added to the dosing end of each dialysis well, and blank dialysis buffer was added to the corresponding receiving end of the dialysis well. […] All samples were subjected to protein precipitation, and then analyzed by LC/MS/MS. Unbound rate (% Unbound), bound rate (% Bound), and recovery rate (% Recovery) of the compound were calculated using the following formulae: % Unbound=100*FC/TC, % Bond=100−% Unbound, and % Recovery=100*[…]/T0, […]
# U937 cells = experiment: U937 cell activity assay: TNFα/QVD-OPh-induced programmed cell necrosis (necroptosis); format: cell-based, human; conditions: Homo sapiens, U-937, 24 h, QVD-OPh 25 μM + TNF-α 100 ng/mL, CellTiter Glo
# Experimental: 1.2 Instrument and Materials
# Envision plate reader (Perkin Elmer, Cat #2104-0010)
# 1.3 Formulation of Reagents • (1) 1×DPSB: To 100 mL of 10×DPBS was added 900 mL of deionized water. • (2) 1640 complete medium: To 89 mL of RPMI-1640 medium were added 10 mL of FBS and 1 mL of penicillin/streptomycin 2. Assay Steps • 1. U937 cells were centrifuged, and then the medium was discarded. The cells were resuspended in 1640 complete medium and counted. The cell concentration was adjusted to 5×10^5 cells/mL for use, and the cells were arranged according to compounds to be assayed. • 2. To the prepared resuspension of U937 cells were added QVD-OPh at a final concentration of 25 μM and TNF-α at a final concentration of 100 ng/mL, and then the mixture was mixed gently. • 3. To a 384-well plate was added 30 μL/well of U937 cells containing 25 μM of QVD-OPh and TNF-α at a final concentration of 100 ng/mL, and blank control wells without QVD-OPh and TNF-α were set up. • 4. To the dosing group […] added 10 μL of the assay compound at 4 times the preset concentration, and to the blank control well was added DMSO at the corresponding concentration. • 5. The 384-well plate was placed in a 37° C. and 5% CO2 cell incubator for 24 hours. • 6. After 24 hours, the 384-well plate was taken out and equilibrated at room temperature for 20 minutes. • 7. 40 μL of CTG was added to each well, and then the plate was shaken on a shaker in the dark for 2 minutes. • 8. The plate was incubated at room temperature in the dark for 10 minutes, and then read using an Envision plate reader.
smiles,measurement,setting,value
CN1C(=S)[C@@H](NC(=O)c2ncn(Cc3ccccc3)n2)COc2cccnc21 [WX009],4-hour survival rate of animals,[1],100%
same,Decrease in mouse body temperature,[1]; 1 hour,0.94 °C
same,Decrease in mouse body temperature,[1]; 2 hours,1.2 °C
same,Decrease in mouse body temperature,[1]; 3 hours,1.42 °C
same,Decrease in mouse body temperature,[1]; 4 hours,1.52 °C
same,PPB_Unbound,[2],7.0%
same,IC50,U937 cells,1.4 nM
